Experiment [1] addresses T1, Ion channel NompC (Danio rerio, UniProt Q7T1G6). The experiment can be described thus: Fluorescence counterscreen assay for TRPML3 agonists: dose response cell-based high-throughput screening assay to identify agonists of the transient receptor potential channel N1 (TRPN1). [Related pubchem assays: 1526, 1424, 1448 ]. Format: functional. (In general: The purpose of a counterscreen is to sort out artefacts and off-target activity.)

In experiment [2] the target is T2, Mucolipin-3 (Homo sapiens, UniProt Q8TDD5).
T2 sequence (Q8TDD5 whole entry): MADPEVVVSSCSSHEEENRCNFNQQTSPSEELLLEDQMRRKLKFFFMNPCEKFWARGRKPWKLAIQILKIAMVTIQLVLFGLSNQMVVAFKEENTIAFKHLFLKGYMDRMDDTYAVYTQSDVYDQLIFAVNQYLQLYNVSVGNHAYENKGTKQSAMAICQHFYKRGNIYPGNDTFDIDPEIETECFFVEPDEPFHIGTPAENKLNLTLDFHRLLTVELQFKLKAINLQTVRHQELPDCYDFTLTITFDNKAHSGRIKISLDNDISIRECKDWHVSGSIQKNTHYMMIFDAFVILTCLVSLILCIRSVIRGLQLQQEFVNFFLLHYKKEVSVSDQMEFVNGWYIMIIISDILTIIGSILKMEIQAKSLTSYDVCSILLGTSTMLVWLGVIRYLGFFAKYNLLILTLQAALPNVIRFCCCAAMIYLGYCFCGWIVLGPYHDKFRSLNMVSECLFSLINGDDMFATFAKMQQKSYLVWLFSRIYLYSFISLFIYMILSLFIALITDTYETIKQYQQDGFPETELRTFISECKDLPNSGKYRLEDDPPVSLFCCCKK
Description: TRPML3 agonist potency, dose response, cell-based, calcium fluorescence (AID 2510). In kind it is functional.

For experiment [3], the target named is T2, Mucolipin-3. The experiment can be described thus: Dose response cell-based high-throughput screening assay for agonists of the transient receptor potential channel ML3 (TRPML3). [Related pubchem assays: 1526, 1424, 1448 ]. Format: functional.
Experiment [4] concerns the target T1, Ion channel NompC. Description: Late stage counterscreen for the probe development effort to identify selective agonists of the Transient Receptor Potential Channels 3 (TRPML3): fluorescence-based cell-based dose response assay for TRPN1 agonists. In kind it is functional.
Experiment [5] concerns the target T3, Heat shock factor protein 1 (Mus musculus, UniProt P38532).
T3 sequence (P38532 whole entry): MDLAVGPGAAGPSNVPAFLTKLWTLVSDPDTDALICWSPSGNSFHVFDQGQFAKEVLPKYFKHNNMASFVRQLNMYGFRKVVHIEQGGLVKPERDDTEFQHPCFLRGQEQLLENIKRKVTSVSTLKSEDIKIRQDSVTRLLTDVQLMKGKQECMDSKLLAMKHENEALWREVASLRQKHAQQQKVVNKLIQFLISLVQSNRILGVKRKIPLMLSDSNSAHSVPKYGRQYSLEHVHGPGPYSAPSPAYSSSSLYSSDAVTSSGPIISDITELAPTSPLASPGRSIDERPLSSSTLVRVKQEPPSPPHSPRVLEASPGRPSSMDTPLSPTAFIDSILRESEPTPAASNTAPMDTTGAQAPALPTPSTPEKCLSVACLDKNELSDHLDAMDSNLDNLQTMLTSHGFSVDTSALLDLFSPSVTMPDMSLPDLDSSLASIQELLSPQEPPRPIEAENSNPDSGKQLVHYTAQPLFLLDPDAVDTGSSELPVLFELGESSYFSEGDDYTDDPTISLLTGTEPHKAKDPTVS
The experiment can be described thus: inhibition of MG132-induced HSE-luciferase signal, confirmation, cell-based, NIH3T3, luminescence, dose retest (AID 2382).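 Further: NIH3T3 fibroblasts with HSF1-driven luciferase reporter stressed by proteasome inhibitor MG132; luminescence from HSF1-driven luciferase expression after 8 hours of MG132 stress.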 In kind it is functional.

In experiment [6] the target is Potassium voltage-gated channel subfamily KQT member 2 (Rattus norvegicus, UniProt O88943, W236L). Description: KCNQ2 channel potentiators, dose response, mechanism study for KCNQ2 potentiator project, cell-based, automated electrophysiology (AID 2603). In kind it is functional.
The next experiment has as its target Ephrin type-A receptor 4 (Mus musculus, UniProt Q03137). Description: inhibitors of EphA4 binding to KYL peptide, primary screen, biochemical, colorimetric, mouse EphA4 (AID 689). In kind it is functional.
Experiment [7] concerns the target Neuropeptide Y receptor type 2 (Homo sapiens, UniProt P49146). Format: functional, cell-based.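 Further: HEK293 cells expressing the receptor and a CNG channel; stimulus was NPY near EC95 followed by isoproterenol to raise cAMP; antagonist potency measured as restoring cAMP signal that NPY suppresses.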
Experiment [8] deals with Neuropeptide Y receptor type 1 (Homo sapiens, UniProt P25929). In kind it is functional.
The nature of experiment [9]: Luminescence Cell-Based Dose Response to Identify Activators of Luciferase Translation or Activity in H4-C Neuroglioblastoma Cells. [Related pubchem assays: 1829 (Project Summary), 1814 (Primary HTS)]. In kind it is functional.
Experiment [10] can be described thus: Luminescence Cell-Based Dose Confirmation to Identify Activators of 5'UTR Stem-Loop Driven Alpha-Synuclein mRNA Translation in H4 Neuroglioblastoma Cells. [Related pubchem assays: 1829 (Project Summary), 1814 (Primary HTS)]. In kind it is functional.
Experiment [11] can be described thus: Luminescence Cell-Based Dose Response to Identify Activators of 5'UTR Stem-Loop Driven Prion Protein mRNA Translation in H4-C Neuroglioblastoma Cells. [Related pubchem assays: 1829 (Project Summary), 1814 (Primary HTS)]. In kind it is functional.
Another experiment deals with H4. Description: Luminescence Cell-Based Dose Response HTS to Identify Activators of 5'UTR Stem-Loop Driven Prion Protein mRNA Translation in H4 Neuroglioblastoma Cells. [Related pubchem assays: 1829 (Project Summary), 1814 (Primary HTS)]. Format: functional. The following applies: Homo sapiens.
The nature of experiment [12]: Luminescence Cell-Based Dose Response HTS to Identify Activators of Luciferase Translation or Activity in H4 […] Cells. [Related pubchem assays: 1829 (Project Summary), 1814 (Primary HTS)]. Format: functional.
The target in experiment [13] is T4, Oxysterols receptor LXR-beta (Homo sapiens, UniProt P55055).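 Further: agonist activity at LXR measured by a cell-based luminescence readout across a dose range, run as a counterscreen for daf-12 agonists; HEK293 cells with Gal4-LXR fusion and GAL4-driven luciferase reporter; potency for activation of Gal4-LXR reporter so compounds are agonists.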
T4 sequence (P55055 whole entry): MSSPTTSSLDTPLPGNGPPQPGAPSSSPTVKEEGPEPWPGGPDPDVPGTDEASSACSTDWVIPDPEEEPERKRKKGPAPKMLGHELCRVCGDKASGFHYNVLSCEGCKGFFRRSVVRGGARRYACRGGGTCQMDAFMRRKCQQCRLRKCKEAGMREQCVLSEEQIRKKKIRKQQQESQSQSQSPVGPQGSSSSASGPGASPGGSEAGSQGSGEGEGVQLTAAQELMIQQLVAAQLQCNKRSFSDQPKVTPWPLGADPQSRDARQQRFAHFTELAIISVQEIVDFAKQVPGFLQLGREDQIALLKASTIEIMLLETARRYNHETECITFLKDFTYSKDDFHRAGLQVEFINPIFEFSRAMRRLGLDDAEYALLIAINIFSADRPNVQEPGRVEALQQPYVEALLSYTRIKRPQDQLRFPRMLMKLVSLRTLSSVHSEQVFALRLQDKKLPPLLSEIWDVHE
In kind it is functional, cell-based.

Activity calls are given as the source filed them. A value given as a limit tells only on which side of the number the result lay.

T1 sequence (Q7T1G6 whole entry): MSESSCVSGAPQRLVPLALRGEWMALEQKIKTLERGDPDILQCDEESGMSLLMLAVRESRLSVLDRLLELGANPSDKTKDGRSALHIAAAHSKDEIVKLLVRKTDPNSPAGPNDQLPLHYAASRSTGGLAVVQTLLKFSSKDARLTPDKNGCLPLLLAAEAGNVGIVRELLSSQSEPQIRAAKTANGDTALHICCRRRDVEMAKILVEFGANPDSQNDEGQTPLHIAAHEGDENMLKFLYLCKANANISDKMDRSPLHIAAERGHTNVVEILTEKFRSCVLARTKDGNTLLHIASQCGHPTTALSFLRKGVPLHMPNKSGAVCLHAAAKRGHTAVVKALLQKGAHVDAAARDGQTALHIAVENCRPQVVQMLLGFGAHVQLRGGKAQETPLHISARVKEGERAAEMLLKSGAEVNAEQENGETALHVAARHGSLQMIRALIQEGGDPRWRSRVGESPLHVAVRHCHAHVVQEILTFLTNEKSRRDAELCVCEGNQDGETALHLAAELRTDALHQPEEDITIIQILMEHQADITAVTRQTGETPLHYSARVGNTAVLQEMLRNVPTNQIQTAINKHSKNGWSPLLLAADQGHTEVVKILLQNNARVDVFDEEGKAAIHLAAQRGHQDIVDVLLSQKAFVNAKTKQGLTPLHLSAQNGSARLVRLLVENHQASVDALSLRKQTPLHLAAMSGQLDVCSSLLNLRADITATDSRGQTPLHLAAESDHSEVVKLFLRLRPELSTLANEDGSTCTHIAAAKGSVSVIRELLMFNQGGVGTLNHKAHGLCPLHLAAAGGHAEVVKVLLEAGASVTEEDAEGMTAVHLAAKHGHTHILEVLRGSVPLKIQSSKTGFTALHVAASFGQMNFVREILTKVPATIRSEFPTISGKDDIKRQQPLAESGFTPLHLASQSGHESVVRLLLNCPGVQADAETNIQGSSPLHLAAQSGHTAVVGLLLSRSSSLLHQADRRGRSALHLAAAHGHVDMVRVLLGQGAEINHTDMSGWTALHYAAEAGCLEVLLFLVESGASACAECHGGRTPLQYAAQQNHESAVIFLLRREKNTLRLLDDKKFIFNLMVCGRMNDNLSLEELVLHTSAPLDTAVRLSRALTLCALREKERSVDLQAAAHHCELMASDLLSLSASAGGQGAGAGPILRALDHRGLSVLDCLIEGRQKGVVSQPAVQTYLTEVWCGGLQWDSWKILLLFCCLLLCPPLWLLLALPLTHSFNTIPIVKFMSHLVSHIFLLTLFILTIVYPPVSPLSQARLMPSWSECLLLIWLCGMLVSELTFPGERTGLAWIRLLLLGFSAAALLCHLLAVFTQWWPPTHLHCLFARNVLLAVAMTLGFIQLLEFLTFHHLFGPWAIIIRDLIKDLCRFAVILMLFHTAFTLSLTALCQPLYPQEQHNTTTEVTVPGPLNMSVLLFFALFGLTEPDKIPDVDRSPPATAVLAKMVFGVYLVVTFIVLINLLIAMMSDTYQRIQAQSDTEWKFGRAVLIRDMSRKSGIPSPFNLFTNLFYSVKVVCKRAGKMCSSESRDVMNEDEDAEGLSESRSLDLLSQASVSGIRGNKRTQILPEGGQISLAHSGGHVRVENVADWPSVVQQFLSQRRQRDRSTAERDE
Potassium voltage-gated channel subfamily KQT member 2, sequence (O88943 whole entry W236L): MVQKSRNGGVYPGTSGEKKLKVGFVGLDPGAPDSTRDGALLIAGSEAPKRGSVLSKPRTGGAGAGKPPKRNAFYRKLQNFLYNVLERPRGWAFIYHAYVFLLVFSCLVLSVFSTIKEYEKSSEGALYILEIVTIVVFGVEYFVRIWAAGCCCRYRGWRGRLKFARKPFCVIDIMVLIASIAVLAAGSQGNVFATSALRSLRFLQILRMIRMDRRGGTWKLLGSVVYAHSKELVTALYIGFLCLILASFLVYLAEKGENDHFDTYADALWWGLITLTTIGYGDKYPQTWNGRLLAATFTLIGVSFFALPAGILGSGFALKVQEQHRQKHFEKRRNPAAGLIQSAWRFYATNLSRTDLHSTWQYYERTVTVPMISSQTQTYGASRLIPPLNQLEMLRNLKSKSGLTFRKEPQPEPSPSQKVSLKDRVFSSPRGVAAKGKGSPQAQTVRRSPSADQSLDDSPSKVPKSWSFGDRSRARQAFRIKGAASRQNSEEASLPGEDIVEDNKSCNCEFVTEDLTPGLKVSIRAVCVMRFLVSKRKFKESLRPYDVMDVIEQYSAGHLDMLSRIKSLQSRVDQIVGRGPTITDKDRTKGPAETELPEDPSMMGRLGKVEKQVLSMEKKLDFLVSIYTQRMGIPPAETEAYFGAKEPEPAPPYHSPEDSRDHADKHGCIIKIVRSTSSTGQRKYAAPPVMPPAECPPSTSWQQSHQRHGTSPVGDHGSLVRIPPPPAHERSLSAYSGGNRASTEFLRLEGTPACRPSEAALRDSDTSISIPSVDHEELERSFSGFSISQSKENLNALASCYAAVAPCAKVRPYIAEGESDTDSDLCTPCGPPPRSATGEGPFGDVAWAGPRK
Neuropeptide Y receptor type 2, sequence (P49146 whole entry): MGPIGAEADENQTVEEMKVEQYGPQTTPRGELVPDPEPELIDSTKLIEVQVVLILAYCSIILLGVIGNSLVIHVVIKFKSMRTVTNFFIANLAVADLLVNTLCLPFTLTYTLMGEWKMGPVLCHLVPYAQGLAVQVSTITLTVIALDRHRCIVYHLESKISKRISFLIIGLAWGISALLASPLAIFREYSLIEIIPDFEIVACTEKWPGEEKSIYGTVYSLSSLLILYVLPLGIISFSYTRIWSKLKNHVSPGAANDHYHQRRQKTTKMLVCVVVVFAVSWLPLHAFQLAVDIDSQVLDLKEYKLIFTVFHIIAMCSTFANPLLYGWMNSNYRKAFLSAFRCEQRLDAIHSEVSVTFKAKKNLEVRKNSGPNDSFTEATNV
Ephrin type-A receptor 4, sequence (Q03137 whole entry): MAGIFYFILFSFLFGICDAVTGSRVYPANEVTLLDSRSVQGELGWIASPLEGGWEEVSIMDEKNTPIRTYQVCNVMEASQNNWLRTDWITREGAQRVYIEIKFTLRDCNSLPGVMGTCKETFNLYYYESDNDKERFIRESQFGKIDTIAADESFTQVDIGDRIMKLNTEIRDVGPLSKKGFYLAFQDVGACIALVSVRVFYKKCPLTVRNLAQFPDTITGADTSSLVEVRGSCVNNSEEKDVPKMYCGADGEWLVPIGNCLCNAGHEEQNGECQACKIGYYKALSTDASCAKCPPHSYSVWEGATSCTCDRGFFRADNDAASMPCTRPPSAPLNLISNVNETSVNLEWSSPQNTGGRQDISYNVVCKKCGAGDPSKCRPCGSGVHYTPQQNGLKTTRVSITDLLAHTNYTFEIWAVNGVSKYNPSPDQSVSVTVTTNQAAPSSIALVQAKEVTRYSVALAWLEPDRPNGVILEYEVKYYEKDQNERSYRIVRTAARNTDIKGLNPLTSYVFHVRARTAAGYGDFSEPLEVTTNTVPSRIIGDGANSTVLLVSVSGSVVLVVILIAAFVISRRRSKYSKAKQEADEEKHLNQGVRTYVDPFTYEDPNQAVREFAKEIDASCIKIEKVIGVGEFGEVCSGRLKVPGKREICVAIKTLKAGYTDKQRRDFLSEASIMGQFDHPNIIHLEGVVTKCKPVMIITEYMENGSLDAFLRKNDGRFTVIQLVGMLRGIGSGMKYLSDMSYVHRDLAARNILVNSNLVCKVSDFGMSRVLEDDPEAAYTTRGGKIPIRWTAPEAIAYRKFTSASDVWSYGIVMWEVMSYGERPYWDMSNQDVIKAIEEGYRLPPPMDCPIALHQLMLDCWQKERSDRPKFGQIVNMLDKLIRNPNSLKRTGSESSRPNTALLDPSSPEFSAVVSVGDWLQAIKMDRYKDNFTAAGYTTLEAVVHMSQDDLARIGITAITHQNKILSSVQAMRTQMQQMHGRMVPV
Neuropeptide Y receptor type 1, sequence (P25929 whole entry): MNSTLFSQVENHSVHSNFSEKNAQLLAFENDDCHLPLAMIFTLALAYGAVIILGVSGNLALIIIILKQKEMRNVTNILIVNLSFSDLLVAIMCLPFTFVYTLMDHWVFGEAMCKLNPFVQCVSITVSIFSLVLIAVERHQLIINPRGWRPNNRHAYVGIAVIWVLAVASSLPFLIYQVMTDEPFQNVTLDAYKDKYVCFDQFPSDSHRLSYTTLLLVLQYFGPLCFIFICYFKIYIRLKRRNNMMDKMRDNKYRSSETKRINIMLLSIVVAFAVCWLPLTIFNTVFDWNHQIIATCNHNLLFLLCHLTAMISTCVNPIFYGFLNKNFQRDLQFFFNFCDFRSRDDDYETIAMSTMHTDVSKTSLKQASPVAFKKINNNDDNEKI

For orientation: EC50 means the midpoint of the concentration-response curve. For the molecule `Cc1ccc(S(=O)(=O)n2nccc2-c2c(-c3ccc(Cl)cc3)noc2C)cc1`, the EC50 was > 29.9 µM (not active) at Ion channel NompC [1], 0.253 µM (active) at Mucolipin-3 [2], 0.325 µM (active) at Mucolipin-3 [3] and > 29.9 µM (not active) at Ion channel NompC [4].
Take `Clc1ccc(Nc2ccc(Cl)nn2)cc1`: the EC50 is > 195 µM (not active) in experiment [5] and 7.86 µM (active) in [6].
As usually defined, the IC50 is the midpoint of a concentration-inhibition curve. For the molecule `COC(=O)CSc1nc(-c2ccccc2)cc(-c2ccco2)c1C#N`, the IC50 on Ephrin type-A receptor 4 is recorded as > 100 µM (not active).
On to `Cc1ccc(NC(S)=NCc2ccc3c(c2)OCO3)cc1C`, for which the figures for the IC50 in [7] and in experiment [8] were 10 µM (not active) and 9.96 µM (active), respectively.
Regarding `CCOC(=O)c1c[nH]nc1N=C(S)Nc1ccccc1`, the EC50 was 0.324 µM (active) in experiment [9]; 0.38 µM (active) in [10]; 0.352 µM (active) in experiment [11]; > 120 µM (not active) in the experiment with H4; < 0.1 µM (active) in [12]; > 67.6 µM (inactive) in experiment [13].

Source of the values: ChEMBL document CHEMBL1201862, “PubChem BioAssay data set” (2004).
